Measured values taken from patent publication US6503932B2, “Fungicidal mixtures based on amide compounds” (BASF Aktiengesellschaft, priority 2000, dated 2003).

What was measured:
[1] = tested on: mildew of wheat (Blumeria graminis forma specialis tritici); experiment: Activity against mildew of wheat (protective, potted wheat seedlings); assay type: in vivo; settings: wheat 'Kanzler', 7 days
Description: (§1) The active compounds, separately or together, were formulated as a 10% strength emulsion in a mixture of 70% by weight of cyclohexanone, 20% by weight of Nekanil® LN (Lutensol® AP6, wetting agent having emulsifying and dispersing action based on ethoxylated alkylphenols) and 10% by weight of Emulphor® EL (Emulan® EL, emulsifier based on ethoxylated fatty alcohols) and correspondingly diluted with water to the desired concentration.
(§2) Evaluation was carried out by determining the infected leaf areas in percent. These percentages were converted into efficacies. The efficacy (W) was calculated as follows using Abbot's formula: […]
The expected efficacies of the mixtures of the active compounds were determined using Colby's formula [R. S. Colby, Weeds 15, 20-22 (1967)] and compared with the observed efficacies. […]
Leaves of potted wheat seedlings of the culivar “Kanzler” were sprayed to run off point with an aqueous preparation of active compound which had been prepared from a stock solution made of 10% of active compound, 85% of cyclohexanone and 5% of emulsifier and, 24 hours after the spray coating had dried on, dusted with spores of mildew of wheat (Blumeria graminis forma specialis tritici). […] After 7 days, the extent of the mildew development was determined visually in % infection of the total leaf area. […]

Puccinia recondita = experiment: Curative activity against Puccinia recondita on wheat (wheat leaf rust); assay type: in vivo; settings: wheat 'Kanzler', 7 days
Description: as §1, §2
α corresponds to the fungal infection of the treated plants in % and β corresponds to the fungal infection of the untreated (control) plants in % An efficacy of 0 means that the infection level of the treated plants corresponds to that of the untreated control plants; an efficacy of 100 means that the treated plants were not infected.
The expected efficacies of the mixtures of the active compounds were determined using Colby's formula [R. S. Colby, Weeds 15, 20-22 (1967)] and compared with the observed efficacies.
Colby's formula: E=x+y−x·y/100
E expected efficacy, expressed in % of the untreated control, when using the mixture of the active compounds A and B at the concentrations a and b x efficacy, expressed in % of the untreated control, when using active compound A at a concentration of a y efficacy, expressed in % of the untreated control, when using active compound B at a concentration of b.
Leaves of potted wheat seedlings of the cultivar “Kanzler” were dusted with spores of leaf rust (Puccinia recondita). Thereafter, the pots were kept for 24 hours in a chamber of high atmospheric humidity (90 to 95%) and at 20-22° C. During this time, the spores germinated and the germinal tubes penetrated into the leaf tissue. […] Thereafter, the extent of the rust fungus development on the leaves was determined. […]

For spiroxamine [spiroxamine (II)], which “Efficacy in % of the untreated control” value ([1]; 1.5 ppm in the spray liquor) is on record?
The value was 0%.

What about the “Efficacy in % of the untreated control” value ([1]; 3 ppm in the spray liquor) of the same substance?
Its value is 20%.

And the “Efficacy in % of the untreated control” value (Puccinia recondita; 1.5 ppm in the spray liquor)?
The value was 0%.

What about the “Efficacy in % of the untreated control” value (Puccinia recondita; 3 ppm in the spray liquor) of the same substance?
Its value is 0%.

And the “Efficacy in % of the untreated control” value (Puccinia recondita; 12.5 ppm in the spray liquor)?
The value was 30%.
